Like-named read-outs stand apart in the source and are kept apart here. Values belong to the compound of their own block, whether it stands above or below them.
How the values were obtained:
Assay type in all cases: cell-based
NR2F6 LBD = biological target: T1, NR2F6 LBD (Homo sapiens, UniProt P10588); assay: NR2F6 LBD transient transfection; conditions: LBD
T1 construct: expressed in transfected cells
T1 sequence (P10588 165-393 limits assumed): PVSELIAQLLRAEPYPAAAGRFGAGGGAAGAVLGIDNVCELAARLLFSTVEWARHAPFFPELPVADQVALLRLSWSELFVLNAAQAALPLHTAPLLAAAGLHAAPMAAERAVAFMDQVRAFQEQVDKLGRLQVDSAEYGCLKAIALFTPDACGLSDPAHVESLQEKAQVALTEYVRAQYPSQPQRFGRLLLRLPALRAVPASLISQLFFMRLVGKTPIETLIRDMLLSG
Outline: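 LBD-transfected cells treated at 40, 10, 2 and 0.5 μM (4 replicates); cytotoxicity measured in parallel, normalized to DMSO (0%) and zero signal (100%). Higher concentrations excluded where signal loss reflected toxicity.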

HEK293 pGL4 = assay: Firefly_pGL signal, cmpd/DMSO (pGL4 control cells); conditions: Homo sapiens
NR2F6 = biological target: T2, NR2F6 (Homo sapiens, UniProt P10588); assay: NR2F6 agonist screening, Firefly signal cmpd/DMSO
T2 construct: expressed in transfected cells; also transient transfection
T2 sequence (P10588 1-404): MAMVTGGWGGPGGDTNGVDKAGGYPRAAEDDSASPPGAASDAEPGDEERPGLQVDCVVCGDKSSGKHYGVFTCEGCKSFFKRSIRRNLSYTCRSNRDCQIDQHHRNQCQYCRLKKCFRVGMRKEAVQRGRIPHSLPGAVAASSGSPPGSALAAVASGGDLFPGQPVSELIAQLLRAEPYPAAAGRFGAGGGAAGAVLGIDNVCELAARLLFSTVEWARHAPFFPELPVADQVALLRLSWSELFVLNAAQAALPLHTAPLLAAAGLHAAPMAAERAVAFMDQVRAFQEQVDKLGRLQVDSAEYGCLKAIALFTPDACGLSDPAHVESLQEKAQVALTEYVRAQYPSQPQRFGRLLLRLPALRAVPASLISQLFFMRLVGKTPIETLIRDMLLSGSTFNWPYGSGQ

Renilla = Renilla signal in NR2F6 agonist screening, cmpd/DMSO; conditions: Renilla, F4
[1] = HEK293, 0.5 uM, pGL4, read-out: Firefly pGL4, cmpd/DMSO (mean)
[2] = HEK293, 2 uM, pGL4, read-out: Firefly pGL4, cmpd/DMSO (mean)
[3] = HEK293, 10 uM, pGL4, read-out: Firefly pGL4, cmpd/DMSO (mean)
[4] = HEK293, 40 uM, pGL4, read-out: Firefly pGL4, cmpd/DMSO (mean)
[5] = HEK293, pGL4, 1% FBS, 0.5 uM, read-out: Firefly, pGL4, 1% FBS, cmpd/DMSO (mean)
[6] = HEK293, pGL4, 1% FBS, 2 uM, read-out: Firefly, pGL4, 1% FBS, cmpd/DMSO (mean)
[7] = HEK293, pGL4, 1% FBS, 10 uM, read-out: Firefly, pGL4, 1% FBS, cmpd/DMSO (mean)
[8] = HEK293, pGL4, 1% FBS, 40 uM, read-out: Firefly, pGL4, 1% FBS, cmpd/DMSO (mean)
[9] = HEK293, pGL4, 10% FBS, 0.5 uM, read-out: Firefly, pGL4, 10% FBS, cmpd/DMSO (mean)
[10] = HEK293, pGL4, 10% FBS, 2 uM, read-out: Firefly, pGL4, 10% FBS, cmpd/DMSO (mean)
[11] = HEK293, pGL4, 10% FBS, 10 uM, read-out: Firefly, pGL4, 10% FBS, cmpd/DMSO (mean)
[12] = HEK293, pGL4, 10% FBS, 40 uM, read-out: Firefly, pGL4, 10% FBS, cmpd/DMSO (mean)
[13] = read-out: Renilla, F4, cmpd/DMSO (mean)
[14] = 1% FBS, read-out: Renilla, F4, 1% FBS, cmpd/DMSO (mean)
[15] = 10% FBS, read-out: Renilla, F4, 10% FBS, cmpd/DMSO (mean)

Firefly LBD, cmpd/DMSO (mean) (NR2F6 LBD; 0.5 uM): 1.2
Firefly LBD, cmpd/DMSO (mean) (NR2F6 LBD; 2 uM): 1.8
Firefly LBD, cmpd/DMSO (mean) (NR2F6 LBD; 10 uM): 3.8
Firefly LBD, cmpd/DMSO (mean) (NR2F6 LBD; 40 uM): 0.7
Firefly F4, cmpd/DMSO (mean) (NR2F6; 0.5 uM): 1.1
Firefly F4, cmpd/DMSO (mean) (NR2F6; 2 uM): 2.4
Firefly F4, cmpd/DMSO (mean) (NR2F6; 10 uM): 5.5
Firefly F4, cmpd/DMSO (mean) (NR2F6; 40 uM): 0.9
F4, Firefly/Renilla for S/B(F4) > 3 (NR2F6; 1% FBS, 10 uM): 2.5
Firefly, F4/pGL4 for S/B(F4) > 3 (NR2F6; 1% FBS, 10 uM): 1.9
F4, Firefly/Renilla for S/B(F4) > 3 (NR2F6; 10% FBS, 10 uM): 4.3
Firefly, F4/pGL4 for S/B(F4) > 3 (NR2F6; 10% FBS, 10 uM): 3.4
F4, Firefly/Renilla for S/B(F4) > 3 (NR2F6; 10% FBS, 40 uM): 1.4
Firefly, F4/pGL4 for S/B(F4) > 3 (NR2F6; 10% FBS, 40 uM): 2.1
Firefly, F4, 1% FBS, cmpd/DMSO (mean) (NR2F6; 1% FBS, 0.5 uM): 1.5
Firefly, F4, 1% FBS, cmpd/DMSO (mean) (NR2F6; 1% FBS, 2 uM): 1.7
Firefly, F4, 1% FBS, cmpd/DMSO (mean) (NR2F6; 1% FBS, 10 uM): 4.9
Firefly, F4, 1% FBS, cmpd/DMSO (mean) (NR2F6; 1% FBS, 40 uM): 0.3
Firefly, F4, 10% FBS, cmpd/DMSO (mean) (NR2F6; 10% FBS, 0.5 uM): 1.0
Firefly, F4, 10% FBS, cmpd/DMSO (mean) (NR2F6; 10% FBS, 2 uM): 1.5
Firefly, F4, 10% FBS, cmpd/DMSO (mean) (NR2F6; 10% FBS, 10 uM): 8.9
Firefly, F4, 10% FBS, cmpd/DMSO (mean) (NR2F6; 10% FBS, 40 uM): 3.6
Activity, cmpd/DMSO (NR2F6; Table 31): 5.7
Structure (SMILES): O=S1(=O)C[C@H](N2CCCCC2)[C@@H](S(=O)(=O)c2cccs2)C1 [Compound D105]
fold induction at 0.5 µM (HEK293 pGL4; [1]): 1.2
fold induction at 2 µM (HEK293 pGL4; [2]): 1.9
fold induction at 10 µM (HEK293 pGL4; [3]): 3.8
fold induction at 40 µM (HEK293 pGL4; [4]): 0.7
fold induction at 0.5 µM (HEK293 pGL4; [5]): 1.4
fold induction at 2 µM (HEK293 pGL4; [6]): 1.2
fold induction at 10 µM (HEK293 pGL4; [7]): 2.6
fold induction at 40 µM (HEK293 pGL4; [8]): 1.1
fold induction at 0.5 µM (HEK293 pGL4; [9]): 1.3
fold induction at 2 µM (HEK293 pGL4; [10]): 1.6
fold induction at 10 µM (HEK293 pGL4; [11]): 2.6
fold induction at 40 µM (HEK293 pGL4; [12]): 1.7
fold induction at 0.5 µM (Renilla; [13]): 1.1
fold induction at 2 µM (Renilla; [13]): 1.2
fold induction at 10 µM (Renilla; [13]): 1.7
fold induction at 40 µM (Renilla; [13]): 0.7
fold induction at 0.5 µM (Renilla; [14]): 1.1
fold induction at 2 µM (Renilla; [14]): 1.2
fold induction at 10 µM (Renilla; [14]): 2
fold induction at 40 µM (Renilla; [14]): 1.6
fold induction at 0.5 µM (Renilla; [15]): 1.1
fold induction at 2 µM (Renilla; [15]): 1.2
fold induction at 10 µM (Renilla; [15]): 2.1
fold induction at 40 µM (Renilla; [15]): 2.6

Firefly LBD, cmpd/DMSO (mean) (NR2F6 LBD; 0.5 uM): 1.2
Firefly LBD, cmpd/DMSO (mean) (NR2F6 LBD; 2 uM): 1.8
Firefly LBD, cmpd/DMSO (mean) (NR2F6 LBD; 10 uM): 3.8
Firefly LBD, cmpd/DMSO (mean) (NR2F6 LBD; 40 uM): 0.4
Firefly F4, cmpd/DMSO (mean) (NR2F6; 0.5 uM): 1.6
Firefly F4, cmpd/DMSO (mean) (NR2F6; 2 uM): 1.6
Firefly F4, cmpd/DMSO (mean) (NR2F6; 10 uM): 6.2
Firefly F4, cmpd/DMSO (mean) (NR2F6; 40 uM): 2.4
F4, Firefly/Renilla for S/B(F4) > 3 (NR2F6; 1% FBS, 10 uM): 3.2
Firefly, F4/pGL4 for S/B(F4) > 3 (NR2F6; 1% FBS, 10 uM): 2.5
F4, Firefly/Renilla for S/B(F4) > 3 (NR2F6; 10% FBS, 10 uM): 2.1
Firefly, F4/pGL4 for S/B(F4) > 3 (NR2F6; 10% FBS, 10 uM): 1.8
F4, Firefly/Renilla for S/B(F4) > 3 (NR2F6; 10% FBS, 40 uM): 2.8
Firefly, F4/pGL4 for S/B(F4) > 3 (NR2F6; 10% FBS, 40 uM): 1.8
Firefly, F4, 1% FBS, cmpd/DMSO (mean) (NR2F6; 1% FBS, 0.5 uM): 1.1
Firefly, F4, 1% FBS, cmpd/DMSO (mean) (NR2F6; 1% FBS, 2 uM): 1.4
Firefly, F4, 1% FBS, cmpd/DMSO (mean) (NR2F6; 1% FBS, 10 uM): 5.2
Firefly, F4, 1% FBS, cmpd/DMSO (mean) (NR2F6; 1% FBS, 40 uM): 0.5
Firefly, F4, 10% FBS, cmpd/DMSO (mean) (NR2F6; 10% FBS, 0.5 uM): 1.2
Firefly, F4, 10% FBS, cmpd/DMSO (mean) (NR2F6; 10% FBS, 2 uM): 1.3
Firefly, F4, 10% FBS, cmpd/DMSO (mean) (NR2F6; 10% FBS, 10 uM): 5.1
Firefly, F4, 10% FBS, cmpd/DMSO (mean) (NR2F6; 10% FBS, 40 uM): 15
Structure (SMILES): CC(C)N[C@H]1CS(=O)(=O)C[C@@H]1S(=O)(=O)c1ccc(Cl)cc1 [Compound D118]
fold induction at 0.5 µM (HEK293 pGL4; [1]): 1.2
fold induction at 2 µM (HEK293 pGL4; [2]): 1.5
fold induction at 10 µM (HEK293 pGL4; [3]): 4.8
fold induction at 40 µM (HEK293 pGL4; [4]): 0.4
fold induction at 0.5 µM (HEK293 pGL4; [5]): 0.9
fold induction at 2 µM (HEK293 pGL4; [6]): 1.2
fold induction at 10 µM (HEK293 pGL4; [7]): 2.1
fold induction at 40 µM (HEK293 pGL4; [8]): 0.9
fold induction at 0.5 µM (HEK293 pGL4; [9]): 1.2
fold induction at 2 µM (HEK293 pGL4; [10]): 1.2
fold induction at 10 µM (HEK293 pGL4; [11]): 2.9
fold induction at 40 µM (HEK293 pGL4; [12]): 8.1
fold induction at 0.5 µM (Renilla; [13]): 1.1
fold induction at 2 µM (Renilla; [13]): 1.3
fold induction at 10 µM (Renilla; [13]): 1.7
fold induction at 40 µM (Renilla; [13]): 1.9
fold induction at 0.5 µM (Renilla; [14]): 1
fold induction at 2 µM (Renilla; [14]): 1.1
fold induction at 10 µM (Renilla; [14]): 1.6
fold induction at 40 µM (Renilla; [14]): 2.3
fold induction at 0.5 µM (Renilla; [15]): 1.2
fold induction at 2 µM (Renilla; [15]): 1.5
fold induction at 10 µM (Renilla; [15]): 2.5
fold induction at 40 µM (Renilla; [15]): 5.2

From patent US11377442B2, “Small molecule agonists and antagonists of NR2F6 activity” (ZANDER THERAPEUTICS, INC., priority 2016, dated 2022)
